Columns and labels:
CD63 = CD63 levels in HEK293 cells; type: cell-based, human; settings: A53T a-syn
Procedure: Infected or transfected cells were scraped from six-well dishes and lysed with lysis buffer (50 mM Tris-HCl pH 7.4, 1% Nonidet P-40, 150 mM NaCl, 1 mM EDTA, 1× protease inhibitor mixture (Sigma)) for 30 min at 4 °C. The insoluble pellet was removed following a 10,000 rpm spin for 5 min at 4 °C. Lysates were analyzed by SDS-PAGE/immunoblot using 4–20% Mini-PROTEAN Tris-glycine gels (Bio-Rad), transferred to polyvinylidene fluoride (PVDF) membranes, and blocked in 5% milk containing PBS-Tween-20 (0.1%) for 1 h. PVDF membranes were then incubated with specified primary antibodies followed by incubation with horseradish peroxidase-conjugated secondary antibodies (anti-mouse HRP-linked, Cell Signaling, catalog #7076, 1:5000; anti-rabbit HRP-linked, Cell Signaling, catalog #7074, 1:5000) and detected using enhanced chemiluminescence (GE Healthcare). Anti-a-syn antibody (clone 42) was obtained from BD Biosciences (catalog #610787, 1:1000). Anti-LAMP1 antibody was obtained from Abcam (catalog #ab24170, 1:500). Anti-beta-actin antibody was obtained from Cell Signaling (13E5) (catalog #4970, 1:1000). Anti-CD63 antibody was obtained from R&D Systems (catalog #MAB50482-SP, 1:1000).

[1] = tested on: LC3-HiBiT reporter in HEK293 cells; experiment: Autophagy flux assay (LC3-HiBiT reporter), HEK293 cells; type: cell-based, human
Description: Autophagic flux was quantitatively measured with the Autophagy LC3-HiBiT Reporter Assay System which was purchased from Promega (GA1040) and used according to the manufacturer’s instructions. When autophagy is induced, the cytosolic LC3-I fusion protein is recruited to phagophores where it becomes conjugated to phosphatidylethanolamine to form LC3-II. Upon phagophore membrane elongation and closure to form the mature autophagosome, a significant fraction of tethered LC3 protein becomes captured within the lumen together with various cargo. Subsequently, autophagosomes fuse with lysosomes to form autolysosomes, leading to the ultimate degradation of both cargo and the captured LC3 reporter protein. Thus, changes in the total level of the LC3 reporter protein can be used to monitor changes in autophagic flux. HEK293 cells (ATCC, CRL-1573) stably expressing the LC3-HiBiT reporter were trypsinized from subconfluent culture and seeded in a 10 cm plate at a density of 3.0 × 10^6 per plate. Cells were incubated overnight at 37 °C in 5% CO2. Cells were transfected with FLAG-peptide plasmids in combination with pcDNA or A53T a-syn plasmids. After 24 h, cells were trypsinized and seeded in triplicate in a white flat-bottomed 96-well plate at a density of 20,000 cells per well. Cell medium was replaced the next day with fresh medium containing DMSO, Rapamycin, or Bafilomycin A1 and incubated for 24 h at 37 °C with 5% CO2. 80 µL of Working prewarmed Nano-Glo® HiBiT lytic buffer containing HiBiT substrate and LgBit protein (N3030) were added to each well containing 20 µL of cell medium and left to incubate on a rocker for 10 min. Samples were read using a luminometer with a 480 nm filter with measured RLU being directly proportional to HiBiT-conjugated LC3.

Rab7 = Rab7 fluorescence in rat cortical neurons; type: cell-based; settings: A53T a-syn
Description: (§1) Pregnant rats (E17) of the Sprague-Dawley strain were purchased from Envigo. Embryos were surgically removed from the mothers and cortices dissected in Hanks Balanced salt solution (Gibco). The meninges were removed, and cells were dissociated using a papain dissociation system (Worthington) before being resuspended in Neurobasal medium A supplemented with antibiotic-antimycotic solution (Gibco), L-glutamine substitute (GlutaMAX™; Gibco) and factor B27 (Gibco). […]
(§2) After fixation, cells were permeabilized with 0.2% Triton-X-100 for 15 min, washed three times with PBS and then incubated with blocking solution (1% BSA, 22.52 mg/mL glycine, 0.1% Tween-20 in PBS or 0.4% saponin, 1% BSA, and 5% goat or donkey serum in PBS) for 1 h. […] Following another three washes with PBS, nuclei were counterstained with DAPI (ThermoFisher) and then coverslips were mounted on slides using Dako fluorescence mounting medium (Agilent) and sealed using clear nail varnish.
Confocal images of primary cortical neurons, iPSC-derived dopaminergic neurons, and LAMP1 staining within the SN were processed using Imaris software (Oxford instruments). […] Mean pixel intensity per GFP^+ cell (for experiments using GFP-tagged peptides) or RFP^+ cell (for experiments using RFP-tagged peptides) was calculated for a-syn or LAMP1 signal using the software’s surfaces module. […]

A53T a-syn = A53T a-syn immunofluorescence in rat cortical neurons; type: cell-based, human; settings: primary rat cortical neurons
Description: as §1, §2
Confocal images of immunofluorescent staining were acquired with a Zeiss LSM880 confocal microscope equipped with 405, 488, 555, and 639 nm laser lines. All images were taken within the linear range at constant gain and pinhole settings at optimal resolution settings determined by the software. […]

DEEIERQLKALG [PDpep1.3]
Effect on CD63 levels (CD63): return of CD63
Effect on autophagic flux [1]: neither A53T a-syn nor PDpep1.3 altered autophagic flux
Effect on Rab7 (Rab7): normalized
Effect on A53T a-syn fluorescence (A53T a-syn): significant decrease in A53T a-syn fluorescence intensity

Reference: publication PMC10115881, “Disrupting the α-synuclein-ESCRT interaction with a peptide inhibitor mitigates neurodegeneration in preclinical models of Parkinson’s disease” (Nature Communications, 2023)
